Measured values as given in article PMC7301643 (Biochemistry, 2020).

How the values were obtained:
[1] = biological target: T1, capping protein (CP, CPα1β2) (Mus musculus, UniProt P47753+P47757); experiment: Fluorescence anisotropy titration of CP into TAMRA-labeled CPI-motif peptide; type: binding
[2] = biological target: T1, capping protein (CP, CPα1β2); experiment: Isothermal calorimetry; type: binding; settings: for ΔG°obs, ITC: ΔG° = −RT ln Ka
CP:F-actin barbed end = CP:F-actin barbed end (Mus musculus, UniProt P47753+P47757); experiment: Pyrene-actin polymerization; type: biochemical, Oryctolagus cuniculus (actin); settings: at concentrations higher than 1 μM
CP bound to F-actin = CP bound to F-actin (Mus musculus, UniProt Q5RKN9+Q923G3); experiment: Kd for CPI binding to CP bound to F-actin, calculated from thermodynamic cycle; set-up: species or system Oryctolagus cuniculus (actin)
[3] = independent experiment 1 (first line), 25 °C, pH 7.2
[4] = independent experiment 2 (second line)

Ac-WASHCAP-NH2 [WASHCAP] was tested, and the Kd [1] was 8.5 ± 0.8 nM, the “N (stoichiometry), ITC” value [2, 3] was 0.985 ± 0.004 and the “TΔS°obs, ITC” value [2, 3] was -14.1 kcal/mol. For the same substance, the “ΔH°obs, ITC” value [2, 3] was -24.6 ± 0.1 kcal/mol, the “ΔG°obs, ITC” value [2, 3] was -10.56 ± 0.04 kcal/mol and the “N (stoichiometry), ITC” value [2, 4] was 0.971 ± 0.009. For the same substance, the “TΔS°obs, ITC” value [2, 4] was -18.3 kcal/mol, the “ΔH°obs, ITC” value [2, 4] was -28.9 ± 0.4 kcal/mol and the “ΔG°obs, ITC” value [2, 4] was -10.60 ± 0.10 kcal/mol. For the same substance, the “interference of peptide with actin polymerization” value (CP:F-actin barbed end) was “interfered with polymerization” and the Kd (CP bound to F-actin) was 110 ± 10 nM.
